Data as given in the supplement of paper PMC10307832.

Tests used:
Experiment in all cases: relative viability (nuclei count vs DMSO), 5 days (fraction); higher = more cells survive
Vandetanib + OSI-027 = compound: COc1cc2/c(=N/c3ccc(Br)cc3F)nc[nH]c2cc1OCC1CCN(C)CC1 [Vandetanib] + COc1cccc2cc(-c3nc([C@H]4CC[C@H](C(=O)O)CC4)n4ncnc(N)c34)[nH]c12 [OSI-027] (partner 0.5 µM)
How it was run: (§1)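 Lung cancer cell lines, seeded in 1536-well plates, were treated the following day by pin tool with a single drug or with five library-drug doses (not always all listed) in √10 steps on top of a fixed anchor-drug dose. Cells were fixed and nuclei stained in one step after 5 days, and nuclei were counted. Relative viability is the nuclei count for treated wells divided by that for vehicle wells, reported as medians of duplicate plates.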

NVP-TAE684 + Vorinostat = compound: COc1cc(N2CCC(N3CCN(C)CC3)CC2)ccc1Nc1ncc(Cl)c(Nc2ccccc2S(=O)(=O)C(C)C)n1 [NVP-TAE684] + O=C(CCCCCCC(=O)Nc1ccccc1)NO [Vorinostat] (partner 1 µM)
How it was run: as §1

Vandetanib + Vorinostat = compound: COc1cc2/c(=N/c3ccc(Br)cc3F)nc[nH]c2cc1OCC1CCN(C)CC1 [Vandetanib] + O=C(CCCCCCC(=O)Nc1ccccc1)NO [Vorinostat] (partner 1 µM)
How it was run: as §1

[1] = compound: C1=CC=C2C(=C1)N=C(S2)C(C#N)C3=NC(=NC=C3)NCCC4=CN=CC=C4 + O=C(c1cc(Cc2n[nH]c(=O)c3ccccc23)ccc1F)N1CCN(C(=O)C2CC2)CC1 [Olaparib] (partner 8 µM)
How it was run: as §1

| Cell Line | relative viability (Vandetanib + OSI-027; first compound 0.02 µM) | relative viability (Vandetanib + OSI-027; first compound 0.06325 µM) | relative viability (Vandetanib + OSI-027; first compound 0.2 µM) | relative viability (Vandetanib + OSI-027; first compound 0.6325 µM) | relative viability (Vandetanib + OSI-027; first compound 2 µM) | relative viability (NVP-TAE684 + Vorinostat; first compound 0.2 µM) | relative viability (NVP-TAE684 + Vorinostat; first compound 0.6325 µM) | relative viability (NVP-TAE684 + Vorinostat; first compound 2 µM) | relative viability (Vandetanib + Vorinostat; first compound 0.02 µM) | relative viability (Vandetanib + Vorinostat; first compound 0.06325 µM) | relative viability (Vandetanib + Vorinostat; first compound 0.2 µM) | relative viability (Vandetanib + Vorinostat; first compound 0.6325 µM) | relative viability (Vandetanib + Vorinostat; first compound 2 µM) | relative viability ([1]; first compound 0.005 µM) | relative viability ([1]; first compound 0.01581 µM) | relative viability ([1]; first compound 0.05 µM) | relative viability ([1]; first compound 0.1581 µM) | relative viability ([1]; first compound 0.5 µM) |
| --- | --- | --- | --- | --- | --- | --- | --- | --- | --- | --- | --- | --- | --- | --- | --- | --- | --- | --- |
| NCI-H838 | 0.409 | 0.379 | 0.37 | 0.333 | 0.424 | 0.76 | 0.692 | 0.334 | 0.731 | 0.679 | 0.772 | 0.78 | 0.68 | 0.622 | 0.829 | 0.731 | 0.773 | 0.546 |
| NCI-H520 | 0.219 | 0.226 | 0.311 | 0.268 | 0.271 | 0.776 | 0.681 | 0.313 | 0.7 | 0.706 | 0.739 | 0.677 | 0.639 | 0.302 | 0.307 | 0.309 | 0.321 | 0.29 |
| NCI-H2342 | 0.616 | 0.597 | 0.644 | 0.669 | 0.591 | 0.848 | 0.776 | 0.678 | 0.754 | 0.674 | 0.785 | 0.739 | 0.645 | 0.536 | 0.454 | 0.495 | 0.442 | 0.45 |
| NCI-H358 | 0.706 | 0.569 | 0.678 | 0.504 | 0.307 | 0.697 | 0.608 | 0.0861 | 0.61 | 0.594 | 0.668 | 0.68 | 0.257 | 0.413 | 0.658 | 0.653 | 0.698 | 0.419 |
| HOP-62 | 0.789 | 0.739 | 0.815 | 0.903 | 0.846 | 0.566 | 0.57 | 0.553 | 0.553 | 0.574 | 0.651 | 0.686 | 0.811 | 0.741 | 0.368 | 0.408 | 0.265 | 0.191 |
| NCI-H2170 | 0.641 | 0.673 | 0.727 | 0.655 | 0.811 | 0.771 | 0.763 | 0.824 | 0.84 | 0.829 | 0.816 | 0.767 | 0.813 | 0.592 | 0.686 | 0.621 | 0.598 | 0.458 |
| NCI-H522 | 0.77 | 0.727 | 0.772 | 0.674 | 0.61 | 0.78 | 0.855 | 0.764 | 0.947 | 0.962 | 0.85 | 0.874 | 0.936 | 0.66 | 0.638 | 0.634 | 0.533 | 0.751 |
| NCI-H1651 | 0.595 | 0.703 | 0.667 | 0.616 | 0.628 | 0.635 | 0.537 | 0.508 | 0.53 | 0.618 | 0.62 | 0.535 | 0.593 | 0.178 | 0.17 | 0.172 | 0.182 | 0.163 |
| NCI-H460 | 0.604 | 0.611 | 0.615 | 0.583 | 0.586 |  | 0.806 | 0.106 | 0.632 | 0.674 | 0.685 | 0.654 | 0.674 | 0.4 | 0.502 | 0.43 | 0.516 | 0.333 |
